The text below walks through data of patent US8410107B2, “N-pyridin-3-yl or N-pyrazin-2-yl carboxamides” (Hoffmann-La Roche Inc., priority 2010, dated 2013).

Structures are written as SMILES.

One experiment deals with ABCA1 protein. The experiment is described as follows: Detection of upregulation of ABCA1 protein in cells (ApoA-I binding, high content image analysis). In kind it is cell-based. The settings on record: THP-1 macrophage cells; for EC50: ABCA1 protein increasing efficacy; for % increase of ABCA1 at 3 μM: 24 hrs with compound. As for the experimental part: The ability of compounds of the invention to increase the level of ABCA1 protein is determined in replicate cultures of THP-1 macrophage cells in 96-well microplates. Cells are plated at an initial density of 100,000 cells/well in 100 μl medium and differentiated to adherent macrophages with the addition of PMA (100 nM) for 68 hrs in 10% fetal bovine serum, 3 μl/L of b-mercaptoethanol, RPMI-1640 medium. Then, cells are incubated with RPMI-1640 medium containing 1% FCS, 25 μg/ml acetylated LDL, for 24 hours at 37°. Following incubation with acetylated LDL, cells are washed twice with 50 μl PBS and incubated with 100 μl of RPMI-1640 medium containing the compound of interest solubilized in DMSO for an additional 24 hrs. The final DMSO concentration in presence of cells is maintained at 0.5%. ApoA-I binding assay using High Content Image Analysis is initiated by replacing with fresh medium, RPMI without Phenol Red, 0.2% BSA containing AlexaFluor®647 labeled ApoA-I for 2 h/37° C./5% CO2. Then, cells are fixed with 4% Formaldehyde inPBS (15 min, RT). Following Nuclei are stained with Hoechst solution (3 μM PBS) and Cytoplasm with Cell Mask Blue (2 μg/ml PBS), 15 min, RT. Finally the stained cells are fixed with a second round of formaldehyde treatment. Fixed stained cells are washed and kept in PBS at 4° C. and can be read immediately until one month after preparation.
The Alexa Fluor 647-labeled Apolipoprotein A-I (20 nM) was prepared as follows: Human recombinant Apolipoprotein A-I (ApoA-I) was exchanged to a buffer of 0.02 M NaHCO3 at pH 8.2 on an NAP desalting column (GE Healthcare) and brought to a concentration to 40 μM (1.13 mg/ml) by adjustment with the same buffer. The ApoA-I was fluorescently labeled by incubation with Alexa Fluor carboxylic acid succimidyl ester. (Alexa Fluor 647, Invitrogen A-20006) at a 2:1 molar ratio (Alexa to ApoA-I) for 1 h under shaking at RT. The remaining unconjugated label was removed by buffer exchange to 0.02M NaHCO3 at pH 8.2.
Imaging and data collection were performed on an OPERA confocal microplate imaging reader using a 20× water immersion objective and UV360 or 405 laser to identify the cell nuclei and a 635 laser to identify the fluorescent ApoA-I. Eight fields of view are captured per well. Image capture and analysis was performed with the Acapella software. Background fluorescence detected in control wells without ApoA-I was subtracted.
Using XLfit3 program (ID Business Solutions Ltd. UK), the model 205 for Dose Response One Site is used to calculate the EC50 values. The compounds of the present invention increase the level of ABCA1 protein by more than 45% at a concentration of 3 μM. […] Even more preferably, the compounds of the present invention have EC50 values in a range of 0.1 μM to 3 μM.

The target in another experiment is T1, human CB1 receptor (Homo sapiens, UniProt P21554).
T1 construct: expressed in transfected cells; host or cells: human embryonic kidney (HEK) cells, Semliki Forest Virus system, membrane preparations
T1 sequence (P21554 whole entry): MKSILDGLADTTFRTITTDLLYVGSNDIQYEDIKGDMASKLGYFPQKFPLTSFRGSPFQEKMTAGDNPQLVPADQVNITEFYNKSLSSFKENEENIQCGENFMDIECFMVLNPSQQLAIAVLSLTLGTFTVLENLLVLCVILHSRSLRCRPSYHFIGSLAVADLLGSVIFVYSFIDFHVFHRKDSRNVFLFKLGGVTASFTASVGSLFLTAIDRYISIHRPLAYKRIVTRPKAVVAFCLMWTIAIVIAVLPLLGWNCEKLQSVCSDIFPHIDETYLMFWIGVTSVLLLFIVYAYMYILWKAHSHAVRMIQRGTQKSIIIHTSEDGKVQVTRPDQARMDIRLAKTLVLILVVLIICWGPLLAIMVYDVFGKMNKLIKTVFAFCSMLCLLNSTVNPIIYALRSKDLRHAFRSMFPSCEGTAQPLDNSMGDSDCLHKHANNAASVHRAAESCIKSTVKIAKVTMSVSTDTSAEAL
Kind of experiment: CB1 receptor affinity ([3H]-CP-55,940 displacement, HEK cell membranes). In kind it is binding. The settings on record: displacement of radioligand [3H]-CP-55,940. The protocol: (§1) The affinity of the compounds of the invention for cannabinoid receptors was determined using membrane preparations of human embryonic kidney (HEK) cells in which the human CB1 receptor is transiently transfected using a Semliki Forest Virus system in conjunction with [3H]-CP-55,940 as radioligand. After incubation of freshly prepared cell membrane preparation with the [^3H]-ligand, with or without addition of compounds of the invention, separation of bound and free ligand was performed by filtration over glass fiber filters. Radioactivity on the filter was measured by scintillation counting.
(§2) The ability of the compounds to displace the radioligand [^3H]-CP-55,940 was measured at a concentration of 10 μM and values provided as [% inhibition @ 10 μM] both for the CB1 and CB2 receptor assay, The lower % inhibition is, the lower the likelihood of side effects based on CB1 or CB2 receptor inhibition is.

The next experiment concerns the target T2, human CB2 receptor (Homo sapiens, UniProt P34972).
T2 construct: expressed in transfected cells; host or cells: human embryonic kidney (HEK) cells, Semliki Forest Virus system, membrane preparations
The experiment is described as follows: CB2 receptor affinity ([3H]-CP-55,940 displacement, HEK cell membranes). In kind it is binding. The settings on record: displacement of radioligand [3H]-CP-55,940. The protocol:
as §1, with “cannabinoid CB2” for “cannabinoid”, “CB2” for “CB1”, “[^3H]-CP-55,940” for “[3H]-CP-55,940”
as §2

T2 sequence (P34972 whole entry): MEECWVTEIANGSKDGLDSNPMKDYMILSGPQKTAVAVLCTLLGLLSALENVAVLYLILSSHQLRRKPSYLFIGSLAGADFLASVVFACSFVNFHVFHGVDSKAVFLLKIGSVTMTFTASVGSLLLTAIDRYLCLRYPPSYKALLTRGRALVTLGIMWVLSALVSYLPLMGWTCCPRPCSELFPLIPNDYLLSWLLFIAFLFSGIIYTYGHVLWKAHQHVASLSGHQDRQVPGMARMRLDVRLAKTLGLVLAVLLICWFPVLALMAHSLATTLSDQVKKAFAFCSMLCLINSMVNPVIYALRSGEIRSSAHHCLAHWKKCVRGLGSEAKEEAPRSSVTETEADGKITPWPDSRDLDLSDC

The term EC50 denotes the concentration at which the effect is half-maximal. The term inhibition denotes the drop in the measured response relative to a control, in per cent. The compound `Cc1cccnc1C(=O)Nc1cnc(OCC(F)(F)F)c(-c2ccc(Cl)cc2)c1` [Example 36, 3-methyl-2-pyridinecarboxylic acid[5-(4-chloro-phenyl)-6-(2,2,2-trifluoro-ethoxy)-pyridin-3-yl]-amide] displayed an EC50 in the experiment on ABCA1 protein of 510 nM. The inhibition at 10 µM at human CB1 receptor was 18%; on human CB2 receptor, 2%.
For the compound `Cc1ocnc1C(=O)Nc1cnc(OCC(F)(F)F)c(-c2ccc(Cl)cc2)c1` [Example 37, 5-methyl-4-oxazolecarboxylic acid[5-(4-chloro-phenyl)-6-(2,2,2-trifluoro-ethoxy)-pyridin-3-yl]-amide], the “% increase of ABCA1 at 3 μM” value with ABCA1 protein was above 45% @ 3 μM. Besides, the inhibition at 10 µM was 27% at human CB1 receptor and 8% on human CB2 receptor.
`Cc1ccc(-c2cc(NC(=O)c3cccnc3)cnc2OCC(F)(F)F)cc1C` [Example 38, N-(5-(3,4-dimethylphenyl)-6-(2,2,2-trifluoroethoxy)pyridin-3-yl)nicotinamide]: in the experiment with ABCA1 protein, the EC50 was found to be 2910 nM. In addition, the inhibition at 10 µM on human CB1 receptor was 12%; at human CB2 receptor it was 15%.
The like results for `Cc1cc(-c2cc(NC(=O)c3cccnc3)cnc2OCC(F)(F)F)ccc1Cl` [Example 39, N-(5-(4-chloro-3-methylphenyl)-6-(2,2,2-trifluoroethoxy)pyridin-3-yl)nicotin-amide] were, in that order, 2230 nM, 19% and 16%.
The like results for `O=C(Nc1cnc(OCC(F)(F)F)c(-c2ccc(Cl)cc2)c1)c1ccc(O)cn1` [Example 40, 5-hydroxy-pyridine-2-carboxylic acid[5-(4-chloro-phenyl)-6-(2,2,2-trifluoro-ethoxy)-pyridin-3-yl]-amide] were, in that order, 3310 nM, 19% and -5%.
`Cc1cncc(C(=O)Nc2cnc(OCC(F)(F)F)c(-c3ccc(Cl)cc3)c2)c1` [Example 41, N-(5-(4-chlorophenyl)-6-(2,2,2-trifluoroethoxy)pyridin-3-yl)-5-methylnicotin-amide]: the “% increase of ABCA1 at 3 μM” value in the experiment on ABCA1 protein is given as above 45% @ 3 μM. In addition, the inhibition at 10 µM on human CB1 receptor was 31%; on human CB2 receptor, 8%.
As to `C[C@H](Oc1ncc(NC(=O)c2cccnn2)cc1-c1ccc(Cl)cc1)C(F)(F)F` [Example 42, (S)-N-(5-(4-chlorophenyl)-6-(1,1,1-trifluoropropan-2-yloxy)pyridin-3-yl)pyridazine-3-carboxamide], the concentration for a half-maximal effect (EC50) with ABCA1 protein was determined as 8540 nM. In addition, the inhibition at 10 µM at human CB1 receptor amounted to 23%; at human CB2 receptor, 6%.
The like results for `C[C@H](Oc1ncc(NC(=O)c2cccnc2)cc1-c1ccc(Cl)cc1)C(F)(F)F` [Example 43, (S)-N-(5-(4-chlorophenyl)-6-(1,1,1-trifluoropropan-2-yloxy)pyridin-3-yl)nicotinamide] were, in that order, 5950 nM, 31% and 6%.
The compound `O=C(Nc1cnc(OCC(F)(F)F)c(-c2ccc(Cl)c(F)c2)c1)c1cccnc1` [Example 44, N-(5-(4-chloro-3-fluorophenyl)-6-(2,2,2-trifluoroethoxy)pyridin-3-yl)nicotin-amide] came in with a half-maximal effective concentration (EC50) in the experiment with ABCA1 protein of 1260 nM. For the same compound, the inhibition at 10 µM was 15% on human CB1 receptor and 14% on human CB2 receptor.
The like results for `O=C(Nc1cnc(OCC(F)(F)F)c(-c2ccc(F)c(Cl)c2)c1)c1cccnc1` [Example 45, N-(5-(3-chloro-4-fluorophenyl)-6-(2,2,2-trifluoroethoxy)pyridin-3-yl)nicotin-amide] were, in that order, 1030 nM, 11% and 13%.
On to `O=C(Nc1cnc(OCC(F)(F)F)c(-c2ccc(Cl)cc2F)c1)c1cccnc1` [Example 46, N-(5-(4-chloro-2-fluorophenyl)-6-(2,2,2-trifluoroethoxy)pyridin-3-yl)nicotin-amide], for which the “% increase of ABCA1 at 3 μM” value in the experiment with ABCA1 protein is above 45% @ 3 μM. The results for the inhibition at 10 µM on human CB1 receptor and on human CB2 receptor were 40% and -1%, respectively.
In the experiment with ABCA1 protein, `CCc1ccc(-c2cc(NC(=O)c3cccnc3)cnc2OCC(F)(F)F)cc1` [Example 47, N-(5-(4-ethylphenyl)-6-(2,2,2-trifluoroethoxy)pyridin-3-yl)nicotinamide] yielded an EC50 of 1360 nM. Besides, the inhibition at 10 µM worked out at 34% on human CB1 receptor and 5% at human CB2 receptor.
As to `C[C@H](Oc1ncc(NC(=O)c2cccnc2)nc1-c1ccc(Cl)cc1)C(F)(F)F` [Example 48, (S)-N-(6-(4-chlorophenyl)-5-(1,1,1-trifluoropropan-2-yloxy)pyrazin-2-yl)nicotinamide], the “% increase of ABCA1 at 3 μM” value with ABCA1 protein was above 45% @ 3 μM. Besides, the inhibition at 10 µM is 40% on human CB1 receptor and -2% at human CB2 receptor.
As to `O=C(Nc1cnc(OCC(F)(F)F)c(-c2ccc(Cl)cc2)n1)c1cccnc1` [Example 49, N-(6-(4-chlorophenyl)-5-(2,2,2-trifluoroethoxy)pyrazin-2-yl)nicotinamide], the response in the experiment with ABCA1 protein was half-maximal at 300 nM (EC50). Besides, the inhibition at 10 µM was 39% on human CB1 receptor and -3% on human CB2 receptor.
The like results for `O=C(Nc1cnc(OC2CCC2)c(-c2ccc(Cl)cc2)n1)c1cccnc1` [Example 50, N-(6-(4-chlorophenyl)-5-cyclobutoxypyrazin-2-yl)nicotinamide] were, in that order, 1500 nM, 39% and -1%.
For `O=C(Nc1cnc(OC2CCC2)c(-c2ccc(Cl)cc2)n1)c1cncnc1` [Example 51, N-(6-(4-chlorophenyl)-5-cyclobutoxypyrazin-2-yl)pyrimidine-5-carboxamide], in the experiment on ABCA1 protein, the “% increase of ABCA1 at 3 μM” value was above 45% @ 3 μM. The inhibition at 10 µM at human CB1 receptor stood at 48%; at human CB2 receptor, 6%.
The like results for `Cc1cc(-c2cc(NC(=O)c3cncnc3)cnc2OCC(F)(F)F)ccc1Cl` [Example 52, N-(5-(4-chloro-3-methylphenyl)-6-(2,2,2-trifluoroethoxy)pyridin-3-yl)pyrimidine-5-carboxamide] were, in that order, above 45% @ 3 μM, 34% and 6%.
The like results for `O=C(Nc1cnc(OCC(F)(F)F)c(-c2ccc(Cl)c(F)c2)c1)c1cncnc1` [Example 53, N-(5-(4-chloro-3-fluorophenyl)-6-(2,2,2-trifluoroethoxy)pyridin-3-yl)pyrimidine-5-carboxamide] were, in that order, above 45% @ 3 μM, 21% and 0%.
Consider `O=C(Nc1cnc(OCC(F)(F)F)c(-c2ccc(F)c(Cl)c2)c1)c1cncnc1` [Example 54, N-(5-(3-chloro-4-fluorophenyl)-6-(2,2,2-trifluoroethoxy)pyridin-3-yl)pyrimidine-5-carboxamide], for which the “% increase of ABCA1 at 3 μM” value in the experiment with ABCA1 protein is listed as above 45% @ 3 μM. The inhibition at 10 µM at human CB1 receptor was 21%; at human CB2 receptor, 10%.
